{
  "source": "patent US20240139123A1",
  "about": "“COMPOSITIONS AND METHODS FOR IMPROVING BRAIN FUNCTION” (Health Via Modern Nutrition Inc., priority 2021, published 2024)",
  "origin": "cited, not measured here",
  "key": {"[1]": {"details": "rats, diet supplemented as 30% of calories"}, "[2]": {"details": "animal models"}, "NF-κB activation": {"test_system": "NF-κB activation", "details": "in vitro"}, "[3]": {"details": "animal and in vitro studies"}, "[4]": {"details": "Schizophrenia-like rat model"}, "[5]": {"details": "patient with Alzheimer's disease dementia, 20-month oral administration"}},
  "data": [
    {"smiles": "C[C@@H](O)CCOC(=O)C[C@@H](C)O", "note": "[(R)-3-hydroxyburyl (R)-3-hydroxybutyrate]", "values": [
      {"measurement": "cognitive and physical performance", "setting": "[1]", "result": "improved cognitive and physical performance"}
    ]},
    {"smiles": "C=C(C)[C@@H]1CCC(C)=C[C@H]1c1c(O)cc(CCCCC)cc1O", "note": "[CBD, cannabidiol]", "values": [
      {"measurement": "anti-anxiety and antidepressant effects", "setting": "[2]", "result": "exhibited an anti-anxiety and antidepressant effects"},
      {"measurement": "NF-κB activation", "setting": "NF-κB activation", "result": "inhibits"},
      {"measurement": "reactive oxygen species (ROS) production by mitochondria", "setting": "NF-κB activation", "result": "inhibits"},
      {"measurement": "anti-inflammatory properties", "setting": "[3]", "result": "strong anti-inflammatory properties"},
      {"measurement": "cognitive impairment and cortical transcriptional changes", "setting": "[4]", "result": "improve cognitive impairment and reverse cortical transcriptional changes"}
    ]},
    {"smiles": "C[C@@H](O)CCOC(=O)C[C@@H](C)O", "note": "[ketone monoester]", "values": [
      {"measurement": "mood, affect, self-care, cognitive and daily activity performance", "setting": "[5]", "result": "improved markedly in mood, affect, self-care, and cognitive and daily activity performance"}
    ]}
  ]
}
